In US12275684B2, “Methods for making and using endoxifen” (Atossa Therapeutics, Inc., priority 2017, dated 2025):
Where two headings read alike, the source gives them in different places.

Assay: Placebo controlled, dose escalation pharmacokinetic study of oral (Z)-Endoxifen capsules (serum endoxifen; incl. accumulation ratios and dose linearity)
Assay type: in vivo, human
Parameters: Serum concentration, Maximum / Serum concentration, GeoMean / Serum concentration, Mean / Serum concentration, Median / terminal rate constant: unit not given here
Settings: for Serum concentration, GeoMean / Serum concentration, Maximum / Serum concentration, Mean / Serum concentration, Median / Serum concentration, Minimum: 2 mg (n = 6)
Description: An objective of the study was to assess the safety and tolerability of oral (Z)-Endoxifen when administered […] orally as a capsule to healthy female volunteers. A secondary objective was to assess the pharmacokinetics of multiple doses of oral (Z)-Endoxifen in the subjects.
Generally, healthy female volunteers aged ≥18 years and ≤65 years were enrolled. 24 participants were enrolled in 3 cohorts and will be administered study drug orally. Three dose levels of orally administered (Z)-Endoxifen were investigated in 3 cohorts. In each cohort participants were randomized to receive an oral (Z)-Endoxifen or placebo in a blinded fashion. Enteric-resistant capsules used in the study were designed as delayed release capsules to resist rupture for at least 30 minutes, but typically, for about 2 hours, under gastric conditions and then open fully in intestinal fluid (DRCaps; Capsugel, a Lonza Company, USA). Enteric-resistant (Swedish Orange size Zero (0); Capsugel, USA) DRCaps capsules manually filled with 1, 2 or 4 mg of (Z)-endoxifen neat in compliance with GMP requirements were used. Placebo capsules contained microcrystalline cellulose an inert common capsule and tablet excipient.
Each cohort enrolled 8 participants, with 6 participants receiving (Z)-Endoxifen 1 mg capsules orally at 1 mg (Cohort 1), 2 mg (Cohort 2) or 4 mg (Cohort 3) doses and 2 participants receiving matching placebo capsules. In Cohort 1 (Dose Level=1 mg) two participants (sentinels) were dosed 24 hours prior to the remaining participants. One sentinel was dosed with (Z)-Endoxifen and the other with placebo. The remaining six participants in Cohort 1 were dosed as no safety concerns were identified in the sentinel participants. The non-sentinel participants in Cohort 1 were admitted to the clinical research facility at least one day later than the sentinels. There were no sentinels in Cohorts 2 and 3.
Participant engagement in this study was for a period of 56 days. These included a 28 day screening period, and a 7 day post treatment period for Pharmacokinetic (PK) sampling. There were two confinement periods, one at the beginning and one at the end of the dosing periods. Participants were confined to the clinical facility on Days-1 through to Day 2 and Days 21 and 22. If participants were to experience any clinically significant adverse events during the study, they would have been required to remain in the clinical facility for further observation at the discretion of the Principal Investigator (PI).
Healthy female volunteers were screened within 28 days prior to commencement of dosing. Participants were admitted to the clinical facility on Day-1 for up to 3 days. The first dose of (Z)-Endoxifen or placebo capsules was administered on Day 1. Following completion of all safety assessments and sampling for PK analyses, participants were discharged from the clinical facility on Day 2. The first dose on Day 1 was followed by a 6-day treatment free period (Days 2-7). Each participant returned to the clinical facility for PK blood draws and safety assessments during the treatment free period on study Days 4 and 6. On Day 8 participants commenced daily administration of (Z)-Endoxifen capsules or placebo capsules for 14 consecutive days (Days 8-21). Participants were supplied with study drug capsules and asked to self administer daily. Participants visited the clinical facility on Days 11, 14 and 17, prior to dose administration, for PK blood draws and safety assessments. On the morning of Day 21 each participant returned to the clinical facility prior to dose administration and were confined to the facility until Day 22 to allow for the collection of PK blood draws and safety assessments. The Day 21 dose was the last administration of study drug. Participants were discharged from the clinical facility on Day 22 and returned for PK blood draws and safety assessments on study Days 24, 26, and 28. […]

CC/C(=C(\c1ccc(O)cc1)c1ccc(OCCNC)cc1)c1ccccc1 [(Z)-Endoxifen, (Z)-4-(1-(4-(2-(methylamino)ethoxy)phenyl)-2-phenylbut-1-enyl) phenol]
concentration at 10 h (1 mg, Day 1 Pre-dose, read-out: Serum concentration, GeoMean): 2.68 nM | concentration at 10 h (1 mg, Day 1 Pre-dose, read-out: Serum concentration, Max): 2.68 nM | concentration at 10 h (1 mg, Day 1 Pre-dose, read-out: Serum concentration, Mean): 2.68 nM | concentration at 10 h (1 mg, Day 1 Pre-dose, read-out: Serum concentration, Median): 2.68 nM | concentration at 10 h (1 mg, Day 1 Pre-dose, read-out: Serum concentration, Min): 2.68 nM | concentration at 10 h (1 mg, Day 8 Pre-dose, read-out: Serum concentration, GeoMean): 2.68 nM | concentration at 10 h (1 mg, Day 8 Pre-dose, read-out: Serum concentration, Max): 2.68 nM | concentration at 10 h (1 mg, Day 8 Pre-dose, read-out: Serum concentration, Mean): 2.68 nM | concentration at 10 h (1 mg, Day 8 Pre-dose, read-out: Serum concentration, Median): 2.68 nM | concentration at 10 h (1 mg, Day 8 Pre-dose, read-out: Serum concentration, Min): 2.68 nM | concentration at 10 h (1 mg, Day 11 Pre-Dose, read-out: Serum concentration, GeoMean): 37.7 nM | concentration at 10 h (1 mg, Day 11 Pre-Dose, read-out: Serum concentration, Max): 45.5 nM | concentration at 10 h (1 mg, Day 11 Pre-Dose, read-out: Serum concentration, Mean): 38.5 nM | concentration at 10 h (1 mg, Day 11 Pre-Dose, read-out: Serum concentration, Median): 42.8 nM | concentration at 10 h (1 mg, Day 11 Pre-Dose, read-out: Serum concentration, Min): 26.8 nM | concentration at 10 h (1 mg, Day 14 Pre-dose, read-out: Serum concentration, GeoMean): 37.6 nM | concentration at 10 h (1 mg, Day 14 Pre-dose, read-out: Serum concentration, Max): 75.0 nM | concentration at 10 h (1 mg, Day 14 Pre-dose, read-out: Serum concentration, Mean): 43.4 nM | concentration at 10 h (1 mg, Day 14 Pre-dose, read-out: Serum concentration, Median): 40.2 nM | concentration at 10 h (1 mg, Day 14 Pre-dose, read-out: Serum concentration, Min): 13.4 nM | concentration at 10 h (1 mg, Day 17 Pre-Dose, read-out: Serum concentration, GeoMean): 38.5 nM | concentration at 10 h (1 mg, Day 17 Pre-Dose, read-out: Serum concentration, Max): 64.2 nM | concentration at 10 h (1 mg, Day 17 Pre-Dose, read-out: Serum concentration, Mean): 43.4 nM | concentration at 10 h (1 mg, Day 17 Pre-Dose, read-out: Serum concentration, Median): 45.5 nM | concentration at 10 h (1 mg, Day 17 Pre-Dose, read-out: Serum concentration, Min): 13.4 nM | Serum concentration, GeoMean (Day 1 Pre-dose): 1.00 | Serum concentration, Maximum (Day 1 Pre-dose): 1.00 | Serum concentration, Mean (Day 1 Pre-dose): 0.17 | Serum concentration, Median (Day 1 Pre-dose): 0.00 | Serum concentration, Minimum (Day 1 Pre-dose): 0.00 | Serum concentration, GeoMean (Day 4 Hr 72): 5.47 | Serum concentration, Maximum (Day 4 Hr 72): 8.00 | Serum concentration, Mean (Day 4 Hr 72): 5.67 | Serum concentration, Median (Day 4 Hr 72): 5.50 | Serum concentration, GeoMean (Day 6 Hr 120): 2.55 | Serum concentration, Maximum (Day 6 Hr 120): 4.00 | Serum concentration, Mean (Day 6 Hr 120): 2.80 | Serum concentration, Median (Day 6 Hr 120): 3.00 | Serum concentration, GeoMean (Day 8 Pre-dose): 1.00 | Serum concentration, Maximum (Day 8 Pre-dose): 1.00 | Serum concentration, Mean (Day 8 Pre-dose): 0.83 | Serum concentration, Median (Day 8 Pre-dose): 1.00 | Serum concentration, GeoMean (Day 11 Pre-Dose): 22.6 | Serum concentration, Maximum (Day 11 Pre-Dose): 28.0 | Serum concentration, Mean (Day 11 Pre-Dose): 22.8 | Serum concentration, Median (Day 11 Pre-Dose): 22.5 | Serum concentration, GeoMean (Day 14 Pre-dose): 28.9 | Serum concentration, Maximum (Day 14 Pre-dose): 37.0 | Serum concentration, Mean (Day 14 Pre-dose): 29.2 | Serum concentration, Median (Day 14 Pre-dose): 28.5 | Serum concentration, GeoMean (Day 17 Pre-Dose): 31.5 | Serum concentration, Maximum (Day 17 Pre-Dose): 47.0 | Serum concentration, Mean (Day 17 Pre-Dose): 32.2 | Serum concentration, Median (Day 17 Pre-Dose): 29.5 | Serum concentration, Maximum (Day 1 hr 0.5): 0.00 | Serum concentration, Mean (Day 1 hr 0.5): 0.00 | Serum concentration, Median (Day 1 hr 0.5): 0.00 | Serum concentration, GeoMean (Day 1 hr 1): 2.35 | Serum concentration, Maximum (Day 1 hr 1): 4.00 | Serum concentration, Mean (Day 1 hr 1): 2.17 | Serum concentration, Median (Day 1 hr 1): 2.50 | Serum concentration, GeoMean (Day 1 hr 2): 9.55 | Serum concentration, Maximum (Day 1 hr 2): 16.0 | Serum concentration, Mean (Day 1 hr 2): 10.2 | Serum concentration, Median (Day 1 hr 2): 10.0 | Serum concentration, GeoMean (Day 1 hr 3): 14.3 | Serum concentration, Maximum (Day 1 hr 3): 17.0 | Serum concentration, Mean (Day 1 hr 3): 14.5 | Serum concentration, Median (Day 1 hr 3): 14.5 | Serum concentration, GeoMean (Day 1 hr 4): 16.6 | Serum concentration, Maximum (Day 1 hr 4): 22.0 | Serum concentration, Mean (Day 1 hr 4): 17.2 | Serum concentration, Median (Day 1 hr 4): 17.5 | Serum concentration, GeoMean (Day 1 hr 5): 16.8 | Serum concentration, Maximum (Day 1 hr 5): 22.0 | Serum concentration, Mean (Day 1 hr 5): 17.2 | Serum concentration, Median (Day 1 hr 5): 17.0 | Serum concentration, GeoMean (Day 1 hr 8): 13.8 | Serum concentration, Maximum (Day 1 hr 8): 19.0 | Serum concentration, Mean (Day 1 hr 8): 14.3 | Serum concentration, Median (Day 1 hr 8): 14.5 | Serum concentration, GeoMean (Day 1 hr 10): 14.2 | Serum concentration, Maximum (Day 1 hr 10): 19.0 | Serum concentration, Mean (Day 1 hr 10): 14.5 | Serum concentration, Median (Day 1 hr 10): 14.5 | Serum concentration, GeoMean (Day 1 hr 12): 14.1 | Serum concentration, Maximum (Day 1 hr 12): 18.0 | Serum concentration, Mean (Day 1 hr 12): 14.2 | Serum concentration, Median (Day 1 hr 12): 14.0 | Serum concentration, Minimum (Day 1 hr 12): 12.0 | Serum concentration, GeoMean (Day 1 hr 24): 10.1 | Serum concentration, Maximum (Day 1 hr 24): 13.0 | Serum concentration, Mean (Day 1 hr 24): 10.3 | Serum concentration, Median (Day 1 hr 24): 10.5 | AUC0-inf, Max (Day 1, 1 mg, N = 5): 739 ng·h/mL | AUC0-inf, Min (Day 1, 1 mg, N = 5): 441 ng·h/mL | AUC24hr, Max (Day 1, 1 mg, N = 5): 183 ng·h/mL | AUC24hr, Min (Day 1, 1 mg, N = 5): 102 ng·h/mL | AUCTlast, Max (Day 1, 1 mg, N = 5): 582 ng·h/mL | AUCTlast, Min (Day 1, 1 mg, N = 5): 367 ng·h/mL | CL/F, GeoMean (Day 1, 1 mg, N = 5): 1.79 L/h | CL/F, Max (Day 1, 1 mg, N = 5): 2.27 L/h | CL/F, Mean (Day 1, 1 mg, N = 5): 1.82 L/h | CL/F, Median (Day 1, 1 mg, N = 5): 1.87 L/h
